Assay results as given in patent US12605377B2, “Methods of treating fibrosis” (Endeavor Biomedicines, Inc., priority 2020, dated 2026).
Counter-ions that a name gives are not always drawn. Like-named read-outs stand apart in the source and are kept apart here.

How the values were obtained:
[1] = system: kidney fibrosis; conditions: in vivo; cited from earlier work
[2] = system: Hh signaling activity in mouse C3H10T½ cells; experiment: Gli-Luciferase activity in C3H10T½ cells stimulated with SHh-CM; assay type: cell-based; conditions: n=8, geometric mean±SE
[3] = system: Brain Tumor mGli1; experiment: PK/PD GIi1 expression in Ptch−/+ × p53−/− transgenic tumor model (qRT-PCR TaqMan); assay type: in vivo, mouse; conditions: PTCH Tg, single oral dose
Text: (§1) Following the predetermined dosing period, surrogate tissues (lung, skin, and cerebellum) from Balb/C mouse and tumor from Ptch^−/+×p53^−/− transgenic tumor model were harvested, processed, and evaluated for GIi1 expression levels using a quantitative reverse transcription polymerase chain reaction TaqMan® assay. […] Given the parallel PD effects, skin GIi1 is an appropriate PD surrogate for lung tissue GIi1.

[4] = system: mGli1; experiment: PK/PD GIi1 expression in Balb/c surrogate tissues after single oral dose (qRT-PCR TaqMan); assay type: in vivo, Balb/c mouse
Text: as §1

[5] = system: Hh signaling activity in human Daoy cells; experiment: GIi1 transcript levels in Daoy tumor cell line stimulated with SHh-CM (branched chain DNA assay); assay type: cell-based; conditions: GIi1 mRNA, n=8, geometric mean±SE
[6] = system: IPF patients; conditions: cited from earlier work; for effect on FVC in clinical trials (FIG. 1): IPF patients, 24 weeks (GLPG1690 12 weeks), vismodegib in combination with pirfenidone
[7] = cited from earlier work; for predominant AE causing discontinuation: comparator drugs
[8] = system: lung fibrosis
[9] = oral bioavailability; conditions: in vivo
Text: This molecule has been in over 192 human subjects and developed initially with the intention of treating oncologic indications with a focus on lung cancer and basal cell carcinoma (BCC). Although primarily cancer patients, these studies allowed for a preliminary understanding of dose and tolerability.

[10] = system: GIi1 mRNA; experiment: GIi1 mRNA inhibition in skin biopsies of clinical subjects; assay type: in vivo, human
Procedure: (§2) Taldegib was administered to subjects at doses of 50, 100, 200, 400 and 600 mg.

[11] = system: GIi1 activity; conditions: Daoy cells, assay of U.S. Pat. No. 9,000,023; cited from earlier work
[12] = clinical safety and tolerability (MTD, adverse events, discontinuations)
Procedure: as §2

[13] = system: IPF; experiment: Phase 2 multi-center study of safety and efficacy in subjects with IPF; assay type: in vivo, human
Text: Quantitative (% and mL) and qualitative (improved, same, worse) assessment of lung fibrosis by HRCT will be performed at Screening and Week 12. The Screening HRCT will serve as the baseline for study HRCT assessments.

[14] = system: Hh; conditions: Zhu et al. 2019; read-out: ID50 for Hh inhibition; cited from earlier work
[15] = clinical pharmacokinetics; conditions: human, in vivo
[16] = Biopharmaceutics Classification System (BCS) class; assay type: physicochemical
[17] = system: α-SMA protein expression (myofibroblasts); experiment: bleomycin-induced pulmonary fibrosis model, anti-α-SMA immunohistochemistry; conditions: 5 mg/kg orally daily from day seven, pathology on day 21
Text: FIG. 4B depicts the percent α-SMA positive area from the individual mice and the mean and standard deviation for the treatment groups.
A Microsprayer® Aerosolizer was used to perform intratracheal administration of bleomycin. By administering bleomycin via Microsprayer® Aerosolizer, it can be evenly exposed to the lungs and thus, develops a reproducible and uniform pathology.
Pathology of animals was examined on day 21 of the study.

[18] = system: GIi1 mRNA; conditions: vismodegib at its MTD of 150 mg; cited from earlier work
[19] = Balb/c, cerebellum, single oral dose
[20] = after sufficient step-down of dosage, if any

## CC1=C2C[C@H]3[C@@H](CC[C@@H]4C[C@H](NS(C)(=O)=O)CC[C@@]43C)[C@@H]2CC[C@@]2(C1)O[C@@H]1C[C@H](C)CN[C@H]1[C@H]2C [IPI-926]
[1]
  efficacy in treating kidney fibrosis: ineffective

## CN(C(=O)c1ccc(F)cc1C(F)(F)F)C1CCN(c2nnc(-c3ccnn3C)c3ccccc23)CC1 [Taladegib hydrochloride]
[2]
  IC50: 11.2 ± 5.33 nM
[3]
  Brain Tumor mGli1 TEC50: 63.0 ng/mL
  Brain Tumor mGli1 TED50: 1.0 mg/kg
[4]; [19]
  Cerebellum mGli1 TEC50: 230 ng/mL
  Cerebellum mGli1 TED50: 2.2 mg/kg
[4]; Balb/c, lung, single oral dose
  Lung mGli1 TEC50: 264 ± 114 ng/mL
  Lung mGli1 TED50: 2.6 ± 0.6 mg/kg
[4]; Balb/c, skin, single oral dose
  Skin mGli1 TEC50: 84 ng/mL
  Skin mGli1 TED50: 1.1 mg/kg
[4]; time course, single oral dose 8 mg/kg
  duration of sustained target inhibition: at least 24 hours
[5]
  IC50: 2.22 ± 1.14 nM

## CC1=C2C[C@H]3[C@@H](CC=C4C[C@@H](O)CC[C@@]43C)[C@@H]2CC[C@]12O[C@@H]1C[C@H](C)CN[C@H]1[C@H]2C [cyclopamine]
[1]
  efficacy in treating kidney fibrosis: ineffective

## COC(=O)c1ccc2c(c1)NC(=O)/C2=C(\Nc1ccc(N(C)C(=O)CN2CCN(C)CC2)cc1)c1ccccc1 [nintedanib]
[6]
  effect on FVC in clinical trials (FIG. 1): only able to slow the deterioration of FVC
[7]
  predominant AE causing discontinuation: diarrhea

## Cc1ccc(=O)n(-c2ccccc2)c1 [pirfenidone]
[6]
  effect on FVC in clinical trials (FIG. 1): only able to slow the deterioration of FVC
[7]
  predominant AE causing discontinuation: nausea

## CN(C(=O)c1ccc(F)cc1C(F)(F)F)C1CCN(c2nnc(-c3ccnn3C)c3ccccc23)CC1 [taladegib]
[8]; [20]
  serious drug-related adverse events: did not experience serious drug-related adverse events
[8]; at 24 weeks, starting at 200 mg daily
  efficacy endpoints: stabilization or improvement
[9]
  bioavailability: 72 to 91%
[10]; all dose levels tested, 50-600 mg
  pharmacological activity (BED: inhibition >50%): pharmacologically active at all dose levels tested
[10]; dose 50 mg
  inhibition of GIi1 mRNA: greater than 80%
[10]; dose 400 mg (MTD)
  GIi1 mRNA inhibition in skin: > 85%
[10]; doses of 50, 100, 200, 400 and 600 mg, most patients
  inhibition of Gli in skin biopsies: > 80%
[11]
  IC50: ~2.4 nM
[12]; human, in vivo
  most commonly observed adverse events (AEs): nausea, diarrhea, dysgeusia, fatigue, decreased appetite, alopecia, vomiting, muscle spasm, constipation, weight decrease, and headache
  occurrence of muscle spasms: 40%
  predominant AE causing discontinuation: no prevalent AE
[12]; taladegib
  clinically established MTD: 400 mg
[13]; [20]
  serious drug-related adverse events: did not experience serious drug-related adverse events
[13]; at 12 weeks
  efficacy endpoints: stabilization or improvement
[13]; at 12 weeks, starting at 200 mg/day
  dose limiting toxicities: no or limited dose limiting toxicities are observed
[13]; at 18 weeks
  durability of the response: durability of the response is observed
[14]
  IC50: 2.26 nM
[15]; across all doses, estimated, read-out: mean half-life (t½) (converted)
  half-life: ~16 h
[15]; read-out: median tmax
  Tmax: 2 h
[16]
  BCS class: class II (high permeability, low solubility)
[17]
  reduction of α-SMA protein expression: approximately 40%

## CS(=O)(=O)c1ccc(C(=O)Nc2ccc(Cl)c(-c3ccccn3)c2)c(Cl)c1 [vismodegib]
[6]
  effect on FVC in clinical trials (FIG. 1): substantial increase in FVC
[6]; single arm IPF study, combination with pirfenidone, after six months, average
  increase in Forced Vital Capacity (FVC): approximately 100 mL
[18]
  GIi1 mRNA inhibition: less than 50%
[7]
  predominant AE causing discontinuation: muscle spasms
[7]; single arm IPF study, combination with pirfenidone, severe muscle spasms
  discontinuation of participants: over 40%
[7]; vismodegib 150, 104 patients
  Muscle Spasm Adverse Event Frequency, Grade 1: 43% (45)
  Muscle Spasm Adverse Event Frequency, Grade 2: 22% (23)
  Muscle Spasm Adverse Event Frequency, Grade 3: 6% (7)
  Muscle Spasm Adverse Event Frequency, Grade 4: 0%
[7]; vismodegib
  MTD: 150 mg

## CCc1nc2c(C)cc(N3CCN(CC(=O)N4CC(O)C4)CC3)cn2c1N(C)c1nc(-c2ccc(F)cc2)c(C#N)s1 [zirtaxestat]
[6]
  effect on FVC in clinical trials (FIG. 1): small increase in FVC
